Source: patent US20260243779A1, “METHOD FOR EVALUATING RECEPTOR-TYPE TYROSINE KINASE ACTIVITY” (The University of Osaka, priority 2023, published 2026)

Assays:
[1] = target: T1, EGFR (Homo sapiens, UniProt P00533); assay: EGFR immunostaining, subcellular localization of the EGFR; type: cell-based; conditions: EGF not necessary
[2] = target: T1, EGFR; assay: Drug evaluation / FDA-approved drug library screening using MSDδt=500 ms ratio before and after EGF addition, CHO cells expressing EGFR-GFP; conditions: for MSDδt=500 ms ratio compared with the control: compound addition changed MSDδt=500 ms in an EGF-independent manner; for hit in primary screening (MSDδt=500 ms ratio equal to or greater than threshold = control average + 3×standard deviation): FDA-approved drug library (1134 drugs), EGF 60 nM, among the 53 hit compounds
Method: Single-molecule imaging was performed in the same way as above, except that the gefitinib-untreated CHO cell was used instead of the gefitinib-treated CHO cell as the control, and then the MSDδt=500 ms ratio was calculated.
Single-molecule imaging was also performed for the control in order to determine the threshold. Single-molecule imaging for the control was performed in the same way as above, except that the candidate compound was not placed in the wells.
Compounds that are within a significance level of 5% and increased in a concentration-dependent manner were selected, from which the compounds that are difficult to be measured due to coloration or cause the cell damage were excluded.

[3] = target: ErbB3 (Homo sapiens, UniProt P21860); assay: Single-molecule imaging of CHO cell expressing ErbB3-GFP, MSD ratio HRG-treated/untreated; type: cell-based; conditions: drug 0.1 to 10,000 nM; HRG saturated (>30 nM); concentration-dependent; FIG. 8A
Sequence of ErbB3 (P21860 20-1342): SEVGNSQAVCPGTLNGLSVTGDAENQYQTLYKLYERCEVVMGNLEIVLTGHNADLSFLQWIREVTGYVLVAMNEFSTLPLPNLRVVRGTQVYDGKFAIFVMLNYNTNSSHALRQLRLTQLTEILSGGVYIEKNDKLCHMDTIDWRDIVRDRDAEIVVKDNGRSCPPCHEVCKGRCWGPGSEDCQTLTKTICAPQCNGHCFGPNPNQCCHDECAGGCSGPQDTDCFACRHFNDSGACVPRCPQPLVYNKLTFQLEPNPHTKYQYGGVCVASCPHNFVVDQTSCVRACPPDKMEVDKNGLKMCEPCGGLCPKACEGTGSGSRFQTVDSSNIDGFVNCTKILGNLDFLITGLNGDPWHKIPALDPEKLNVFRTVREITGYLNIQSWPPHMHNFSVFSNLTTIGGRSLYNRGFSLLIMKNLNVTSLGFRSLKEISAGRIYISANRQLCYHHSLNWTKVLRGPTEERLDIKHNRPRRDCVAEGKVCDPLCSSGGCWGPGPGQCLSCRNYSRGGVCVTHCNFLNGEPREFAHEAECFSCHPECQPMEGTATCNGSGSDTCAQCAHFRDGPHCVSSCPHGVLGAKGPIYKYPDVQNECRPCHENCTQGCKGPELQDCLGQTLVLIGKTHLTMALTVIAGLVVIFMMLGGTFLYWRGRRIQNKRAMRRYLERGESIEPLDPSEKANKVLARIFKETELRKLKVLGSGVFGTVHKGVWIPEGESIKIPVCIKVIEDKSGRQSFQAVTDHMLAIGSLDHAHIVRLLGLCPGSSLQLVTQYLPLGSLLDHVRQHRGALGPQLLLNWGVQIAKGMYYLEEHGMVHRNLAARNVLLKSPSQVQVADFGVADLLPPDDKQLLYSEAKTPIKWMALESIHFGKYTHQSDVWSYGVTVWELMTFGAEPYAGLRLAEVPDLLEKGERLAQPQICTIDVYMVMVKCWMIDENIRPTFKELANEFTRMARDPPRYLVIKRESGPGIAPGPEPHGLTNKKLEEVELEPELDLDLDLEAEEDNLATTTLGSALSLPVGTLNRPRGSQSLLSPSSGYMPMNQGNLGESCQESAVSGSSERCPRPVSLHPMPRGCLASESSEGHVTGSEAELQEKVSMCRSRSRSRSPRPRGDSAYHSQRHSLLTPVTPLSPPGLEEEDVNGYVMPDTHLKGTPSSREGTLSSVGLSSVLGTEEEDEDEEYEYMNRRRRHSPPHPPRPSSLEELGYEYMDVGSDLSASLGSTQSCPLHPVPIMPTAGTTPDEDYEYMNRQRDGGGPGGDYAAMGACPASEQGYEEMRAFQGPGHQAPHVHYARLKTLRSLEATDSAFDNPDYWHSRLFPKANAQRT
Method: FIGS. 8A and 8B show the relationship between the drug (Sapitinib or Afaitinib) concentration and the receptor diffusion dynamics (MSDδt=500 ms ratio) when the HRG concentration is saturated (>30 nM); here, FIG. 8A is the result for Sapitinib and FIG. 8B is the result for Afaitinib. […] Therefore, it was confirmed that the effect of the phosphorylation inhibitor can be estimated from the change in the molecular dynamics by measuring the diffusion dynamics and calculating the ratio of the MSD values, even for the RTK receptor other than the EGFR.

T1 sequence (P00533 25-1210): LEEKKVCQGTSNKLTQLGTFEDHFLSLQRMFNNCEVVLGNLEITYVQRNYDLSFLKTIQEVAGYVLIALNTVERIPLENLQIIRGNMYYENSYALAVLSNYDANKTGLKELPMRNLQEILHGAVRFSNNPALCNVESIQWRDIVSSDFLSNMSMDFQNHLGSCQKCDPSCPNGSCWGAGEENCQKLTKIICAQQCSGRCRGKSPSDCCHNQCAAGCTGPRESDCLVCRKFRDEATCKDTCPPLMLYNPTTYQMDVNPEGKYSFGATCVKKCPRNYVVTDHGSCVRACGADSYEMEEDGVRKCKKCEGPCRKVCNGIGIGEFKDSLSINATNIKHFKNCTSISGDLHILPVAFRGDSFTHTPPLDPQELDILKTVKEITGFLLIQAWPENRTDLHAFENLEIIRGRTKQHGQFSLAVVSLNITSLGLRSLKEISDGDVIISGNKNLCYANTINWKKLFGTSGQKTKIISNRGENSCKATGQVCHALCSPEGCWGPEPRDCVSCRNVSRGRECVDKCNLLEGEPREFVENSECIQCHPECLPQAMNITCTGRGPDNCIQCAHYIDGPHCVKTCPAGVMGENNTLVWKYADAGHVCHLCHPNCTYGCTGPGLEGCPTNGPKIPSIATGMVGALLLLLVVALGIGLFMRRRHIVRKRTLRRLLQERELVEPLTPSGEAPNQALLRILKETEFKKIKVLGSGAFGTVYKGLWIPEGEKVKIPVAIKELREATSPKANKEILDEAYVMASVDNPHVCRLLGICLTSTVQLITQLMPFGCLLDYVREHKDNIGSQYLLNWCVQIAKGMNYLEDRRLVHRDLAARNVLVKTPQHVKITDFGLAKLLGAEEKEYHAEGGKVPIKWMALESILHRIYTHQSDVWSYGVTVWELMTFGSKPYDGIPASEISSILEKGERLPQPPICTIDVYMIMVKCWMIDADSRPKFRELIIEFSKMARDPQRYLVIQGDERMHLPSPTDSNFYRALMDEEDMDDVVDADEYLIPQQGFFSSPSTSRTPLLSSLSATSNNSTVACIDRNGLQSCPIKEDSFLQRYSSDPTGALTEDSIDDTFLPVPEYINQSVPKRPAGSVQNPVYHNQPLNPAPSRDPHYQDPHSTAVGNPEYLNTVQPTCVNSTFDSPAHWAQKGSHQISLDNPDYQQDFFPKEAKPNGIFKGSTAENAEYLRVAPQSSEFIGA

| SMILES | effect on the subcellular localization of the EGFR [1] | MSDδt=500 ms ratio compared with the control [2] | hit in primary screening (MSDδt=500 ms ratio equal to or greater than threshold = control average + 3×standard deviation) [2] | effect on reduction of receptor mobility (MSDδt=500 ms ratio) by HRG, ErbB3 [3] |
| --- | --- | --- | --- | --- |
| Oc1c(Br)cc(Br)c2cccnc12 [Broxyquinoline] | EGFR was incorporated into the cell | significantly different from the control |  |  |
| COc1cccc2c1C(=O)c1c(O)c3c(c(O)c1C2=O)C[C@@](O)(C(C)=O)C[C@@H]3O[C@H]1C[C@H](N)[C@H](O)[C@H](C)O1 [Daunorubicin] |  |  | included |  |
| O=C(OCC(O)CO)c1ccccc1Nc1ccnc2cc(Cl)ccc12 (stereo not drawn) [Glafenine] | EGFR was incorporated into the cell | significantly different from the control |  |  |
| Cc1cn(-c2cc(NC(=O)c3ccc(C)c(Nc4nccc(-c5cccnc5)n4)c3)cc(C(F)(F)F)c2)cn1 [Nilotinib] | EGFR was incorporated into the cell | significantly different from the control |  |  |
| C#Cc1cccc(Nc2ncnc3cc(OCCOC)c(OCCO)cc23)c1 [OSI-420] |  |  | included |  |
| CNC(=O)CN1CCC(Oc2cc3c(Nc4cccc(Cl)c4F)ncnc3cc2OC)CC1 [Sapitinib] |  |  |  | inhibited the reduction of the receptor mobility |
